In BindingDB's records for patent US20240376119 (Cspc Zhongqi Pharmaceutical Technology (Shijiazhuang), 2024):

Target: T1, Tyrosine-protein phosphatase non-receptor type 11 (Homo sapiens, UniProt Q06124)
T1 sequence (Q06124 whole entry): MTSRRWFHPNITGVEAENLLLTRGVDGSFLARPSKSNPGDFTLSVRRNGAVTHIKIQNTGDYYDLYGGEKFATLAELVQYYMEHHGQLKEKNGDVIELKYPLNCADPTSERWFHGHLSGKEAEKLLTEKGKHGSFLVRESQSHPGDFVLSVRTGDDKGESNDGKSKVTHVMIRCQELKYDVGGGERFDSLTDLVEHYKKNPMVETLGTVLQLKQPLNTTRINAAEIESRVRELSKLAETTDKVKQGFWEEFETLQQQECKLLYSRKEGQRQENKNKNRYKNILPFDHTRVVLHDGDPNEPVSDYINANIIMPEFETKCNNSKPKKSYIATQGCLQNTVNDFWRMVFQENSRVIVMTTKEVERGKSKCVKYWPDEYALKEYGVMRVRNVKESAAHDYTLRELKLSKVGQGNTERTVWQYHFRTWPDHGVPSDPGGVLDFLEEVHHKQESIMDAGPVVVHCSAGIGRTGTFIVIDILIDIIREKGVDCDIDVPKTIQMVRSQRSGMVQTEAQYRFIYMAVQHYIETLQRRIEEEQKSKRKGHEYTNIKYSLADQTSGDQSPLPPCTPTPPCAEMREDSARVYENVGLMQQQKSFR
Test: Assay for the inhibitory effect on the SHP2 enzyme
Description: A mixed liquor of 2× working SHP2 reagent (0.4 nM) and 0.5 μM SHP-2 activated peptide (BPS bioscience #79319-2) was prepared with 1× enzyme buffer. After the above-mixed liquor was incubated at 25° C. for 60 minutes, 5 μL of activated SHP2 kinase solution was transferred with a pipettor to the compound wells and the Max control wells (Corning, #4514) of the plate. Then 5 μL of 1× kinase buffer was transferred to the Min control wells. The plate was centrifuged at 1000 rpm for 30 seconds, sealed, and incubated in a 25° C. constant-temperature incubator for 30 minutes. A substrate solution of DiFMUP (#D6567, Invitrogen™) was prepared with 1× kinase buffer, and its concentration should be 2 times as the final concentration of the assay (DiFMUP final concentration: 10 μM). 5 μL of the prepared substrate solution was transferred with an electric pipettor into each well of the ELISA plate to start the reaction. The plate was centrifuged at 1000 rpm for 30 seconds, sealed, and incubated in a 25° C. constant-temperature incubator for 60 minutes. Read the plate at the excitation/emission wavelength of 358/455 nm after the ELISA plate was placed on the Spark machine.

- IC50: in the range around 20 nM
SMILES: COC(=O)c1nc(Sc2cccc(-c3ccn(C)n3)c2Cl)cnc1N1CCC2(CC1)Cc1ccccc1[C@H]2N [US20240376119, Example 19]
